Measured values published in patent publication US20140005163A1 (NOVARTIS AG, priority 2010, published 2014).
Values after ≈ are worked out from the molar mass of the structure shown.

What was measured:
PI3K alpha = biological target: T1, PI3K alpha (Homo sapiens, UniProt P42336); assay: PI3K alpha kinase assay (Kinase-Glo luminescence); type: biochemical
T1 construct: p85(iSH2) fusion partner (see partner chain) (N); His tag (C); made in house; host or cells: baculovirus; Tn5 (Trichoplusia ni) or TiniPro insect cells
T1 sequence (P42336 with tags, fused parts or gaps limits assumed): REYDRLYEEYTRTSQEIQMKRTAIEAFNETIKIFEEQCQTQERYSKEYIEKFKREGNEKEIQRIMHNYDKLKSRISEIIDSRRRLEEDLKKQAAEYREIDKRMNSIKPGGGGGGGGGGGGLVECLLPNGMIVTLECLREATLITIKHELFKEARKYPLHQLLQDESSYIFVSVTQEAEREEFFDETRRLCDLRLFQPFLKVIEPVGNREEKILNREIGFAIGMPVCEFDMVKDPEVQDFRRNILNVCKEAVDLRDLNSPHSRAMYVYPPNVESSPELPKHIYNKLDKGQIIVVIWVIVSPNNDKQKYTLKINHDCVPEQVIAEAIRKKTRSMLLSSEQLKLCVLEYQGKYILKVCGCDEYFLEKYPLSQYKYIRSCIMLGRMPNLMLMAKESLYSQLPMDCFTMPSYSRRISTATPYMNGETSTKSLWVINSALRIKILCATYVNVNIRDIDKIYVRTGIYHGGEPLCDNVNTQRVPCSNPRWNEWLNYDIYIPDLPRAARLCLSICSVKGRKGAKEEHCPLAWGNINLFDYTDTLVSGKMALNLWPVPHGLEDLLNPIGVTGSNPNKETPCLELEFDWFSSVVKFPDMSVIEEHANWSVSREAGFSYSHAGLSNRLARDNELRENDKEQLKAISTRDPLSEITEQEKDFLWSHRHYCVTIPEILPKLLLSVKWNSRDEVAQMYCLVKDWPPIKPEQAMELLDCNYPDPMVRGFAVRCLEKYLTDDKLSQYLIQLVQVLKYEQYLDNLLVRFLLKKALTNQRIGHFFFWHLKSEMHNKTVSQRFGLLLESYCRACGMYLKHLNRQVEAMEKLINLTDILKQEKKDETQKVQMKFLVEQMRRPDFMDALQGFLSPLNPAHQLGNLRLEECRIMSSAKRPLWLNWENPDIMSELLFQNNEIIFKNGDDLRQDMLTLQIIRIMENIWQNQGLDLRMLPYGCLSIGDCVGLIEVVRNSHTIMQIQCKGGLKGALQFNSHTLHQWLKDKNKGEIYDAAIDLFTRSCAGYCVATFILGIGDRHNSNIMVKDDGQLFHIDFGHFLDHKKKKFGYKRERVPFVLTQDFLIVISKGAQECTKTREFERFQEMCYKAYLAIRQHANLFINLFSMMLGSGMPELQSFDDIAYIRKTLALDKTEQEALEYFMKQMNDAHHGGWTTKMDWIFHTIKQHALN
Procedure, shortened: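 IC50 is taken from a four-parameter logistic fit of 8-point dilutions, with Kinase-Glo luminescence reporting residual ATP. Reactions ran 60 min at room temperature in TRIS pH 7.5 buffer with MgCl2, NaCl, CHAPS and DTT. Final levels were 10 nM enzyme, 1 μM ATP and 10 μg/mL PI.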

PI3K delta = biological target: T2, PI3K delta (Homo sapiens, UniProt O00329); assay: PI3K delta kinase assay (Kinase-Glo luminescence); type: biochemical
T2 construct: for the full-length p110-d subunit are generated and fused by overlapping PCR; p85(iSH2) fusion partner (see partner chain) (N); His tag (C); made in house; host or cells: baculovirus; Tn5 (Trichoplusia ni) or TiniPro insect cells
T2 sequence (O00329 with tags, fused parts or gaps limits assumed): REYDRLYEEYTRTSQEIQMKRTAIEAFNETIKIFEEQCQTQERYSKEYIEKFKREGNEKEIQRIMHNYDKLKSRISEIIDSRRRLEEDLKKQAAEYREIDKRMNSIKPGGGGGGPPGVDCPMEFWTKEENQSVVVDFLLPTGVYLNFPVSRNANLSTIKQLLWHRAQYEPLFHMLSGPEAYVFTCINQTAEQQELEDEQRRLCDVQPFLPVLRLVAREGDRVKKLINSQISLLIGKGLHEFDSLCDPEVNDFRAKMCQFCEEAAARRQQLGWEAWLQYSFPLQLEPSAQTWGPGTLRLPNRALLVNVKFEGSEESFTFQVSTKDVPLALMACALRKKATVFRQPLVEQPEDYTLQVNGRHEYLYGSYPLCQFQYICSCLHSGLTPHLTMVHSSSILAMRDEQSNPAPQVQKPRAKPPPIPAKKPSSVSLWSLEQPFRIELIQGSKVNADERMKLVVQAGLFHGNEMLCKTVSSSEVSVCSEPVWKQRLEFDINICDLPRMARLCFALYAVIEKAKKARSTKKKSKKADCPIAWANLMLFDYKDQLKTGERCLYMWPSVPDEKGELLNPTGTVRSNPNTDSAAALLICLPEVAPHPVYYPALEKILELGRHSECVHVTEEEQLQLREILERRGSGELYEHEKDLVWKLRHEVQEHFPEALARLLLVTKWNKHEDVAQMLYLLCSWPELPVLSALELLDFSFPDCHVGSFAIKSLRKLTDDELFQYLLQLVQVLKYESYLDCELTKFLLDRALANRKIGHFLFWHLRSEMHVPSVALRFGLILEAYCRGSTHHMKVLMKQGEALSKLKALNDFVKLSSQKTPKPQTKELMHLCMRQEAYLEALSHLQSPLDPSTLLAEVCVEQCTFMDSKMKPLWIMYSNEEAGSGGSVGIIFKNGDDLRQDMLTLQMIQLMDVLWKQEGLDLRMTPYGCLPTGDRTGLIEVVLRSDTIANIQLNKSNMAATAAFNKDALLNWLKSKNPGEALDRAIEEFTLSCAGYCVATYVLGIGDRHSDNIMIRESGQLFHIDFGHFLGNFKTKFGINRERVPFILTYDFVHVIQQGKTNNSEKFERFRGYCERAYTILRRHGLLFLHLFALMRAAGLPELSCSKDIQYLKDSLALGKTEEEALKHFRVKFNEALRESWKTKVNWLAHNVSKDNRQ
Procedure, shortened: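 ATP depletion was measured by Kinase-Glo luminescence after a 60-minute room-temperature reaction containing 1 μM ATP, 10 μg/mL PI and 10 nM His-tagged p85(iSH2)-linker-p110δ (BV-1060). Buffer: Tris pH 7.5, 3 mM MgCl2, 50 mM NaCl, 0.05% CHAPS, 1 mM DTT. IC50 values came from four-parameter fits over eight concentrations.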

Solubility at pH 6.8 = type: physicochemical; settings: pH 6.8, aqueous buffer, thermodynamic from solid; read-out: solubility
Procedure, shortened: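 Following the procedure of Zhou et al. (2007), compound solubility was determined at pH 6.8.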

PI3K beta = biological target: T3, PI3K beta (Homo sapiens, UniProt P42338); assay: PI3K beta kinase assay (Kinase-Glo luminescence); type: biochemical
T3 construct: for the full-length p110-b subunit are generated and fused by overlapping PCR; p85(iSH2) fusion partner (see partner chain) (N); His tag (C); made in house; host or cells: baculovirus; Tn5 (Trichoplusia ni) or TiniPro insect cells
T3 sequence (P42338 with tags, fused parts or gaps limits assumed): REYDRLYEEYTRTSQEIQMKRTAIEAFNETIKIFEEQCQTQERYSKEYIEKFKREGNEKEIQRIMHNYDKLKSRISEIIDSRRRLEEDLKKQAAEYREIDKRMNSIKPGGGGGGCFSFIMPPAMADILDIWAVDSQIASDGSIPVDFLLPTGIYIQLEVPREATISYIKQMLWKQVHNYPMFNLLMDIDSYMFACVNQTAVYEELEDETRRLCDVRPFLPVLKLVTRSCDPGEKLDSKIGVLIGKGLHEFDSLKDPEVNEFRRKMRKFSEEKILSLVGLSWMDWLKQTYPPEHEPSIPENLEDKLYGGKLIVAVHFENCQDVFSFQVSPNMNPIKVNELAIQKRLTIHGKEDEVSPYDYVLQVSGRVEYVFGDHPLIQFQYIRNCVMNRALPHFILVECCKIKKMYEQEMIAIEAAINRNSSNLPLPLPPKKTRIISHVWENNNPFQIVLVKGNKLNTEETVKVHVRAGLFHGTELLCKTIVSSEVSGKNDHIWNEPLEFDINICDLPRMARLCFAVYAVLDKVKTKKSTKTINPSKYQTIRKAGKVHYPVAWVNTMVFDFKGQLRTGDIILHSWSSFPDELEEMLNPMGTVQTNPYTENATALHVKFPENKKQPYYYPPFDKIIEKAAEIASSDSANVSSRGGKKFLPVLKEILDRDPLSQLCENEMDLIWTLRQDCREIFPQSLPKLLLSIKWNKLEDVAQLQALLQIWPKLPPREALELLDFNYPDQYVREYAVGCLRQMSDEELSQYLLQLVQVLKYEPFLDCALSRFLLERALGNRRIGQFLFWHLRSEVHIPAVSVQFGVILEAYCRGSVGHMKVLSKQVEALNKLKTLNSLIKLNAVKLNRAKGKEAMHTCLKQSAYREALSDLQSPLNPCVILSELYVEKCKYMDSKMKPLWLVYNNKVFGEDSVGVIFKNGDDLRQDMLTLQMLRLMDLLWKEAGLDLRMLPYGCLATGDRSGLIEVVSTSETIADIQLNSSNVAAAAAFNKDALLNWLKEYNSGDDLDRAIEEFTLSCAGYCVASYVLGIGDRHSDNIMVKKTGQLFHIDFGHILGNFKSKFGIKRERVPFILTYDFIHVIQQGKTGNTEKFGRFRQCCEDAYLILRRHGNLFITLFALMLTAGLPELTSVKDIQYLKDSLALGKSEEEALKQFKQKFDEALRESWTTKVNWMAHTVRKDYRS
Procedure, shortened: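 IC50 is derived by four-parameter logistic curve fitting of Kinase-Glo luminescence, which measures ATP left after a 60 min room-temperature reaction. Conditions are 25 nM His-tagged p85(iSH2)-p110β, 1 μM ATP and 10 μg/mL bovine liver phosphatidylinositol.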

PI3K gamma = biological target: T4, PI3K gamma (Homo sapiens, UniProt P48736); assay: PI3K gamma kinase assay (Kinase-Glo luminescence); type: biochemical
T4 construct: His tag (C); made in house; host or cells: baculovirus (pVL1393); Tn5 or TiniPro insect cells; construct from Roger Williams lab, MRC LMB
T4 sequence (P48736 144-1102 limits assumed): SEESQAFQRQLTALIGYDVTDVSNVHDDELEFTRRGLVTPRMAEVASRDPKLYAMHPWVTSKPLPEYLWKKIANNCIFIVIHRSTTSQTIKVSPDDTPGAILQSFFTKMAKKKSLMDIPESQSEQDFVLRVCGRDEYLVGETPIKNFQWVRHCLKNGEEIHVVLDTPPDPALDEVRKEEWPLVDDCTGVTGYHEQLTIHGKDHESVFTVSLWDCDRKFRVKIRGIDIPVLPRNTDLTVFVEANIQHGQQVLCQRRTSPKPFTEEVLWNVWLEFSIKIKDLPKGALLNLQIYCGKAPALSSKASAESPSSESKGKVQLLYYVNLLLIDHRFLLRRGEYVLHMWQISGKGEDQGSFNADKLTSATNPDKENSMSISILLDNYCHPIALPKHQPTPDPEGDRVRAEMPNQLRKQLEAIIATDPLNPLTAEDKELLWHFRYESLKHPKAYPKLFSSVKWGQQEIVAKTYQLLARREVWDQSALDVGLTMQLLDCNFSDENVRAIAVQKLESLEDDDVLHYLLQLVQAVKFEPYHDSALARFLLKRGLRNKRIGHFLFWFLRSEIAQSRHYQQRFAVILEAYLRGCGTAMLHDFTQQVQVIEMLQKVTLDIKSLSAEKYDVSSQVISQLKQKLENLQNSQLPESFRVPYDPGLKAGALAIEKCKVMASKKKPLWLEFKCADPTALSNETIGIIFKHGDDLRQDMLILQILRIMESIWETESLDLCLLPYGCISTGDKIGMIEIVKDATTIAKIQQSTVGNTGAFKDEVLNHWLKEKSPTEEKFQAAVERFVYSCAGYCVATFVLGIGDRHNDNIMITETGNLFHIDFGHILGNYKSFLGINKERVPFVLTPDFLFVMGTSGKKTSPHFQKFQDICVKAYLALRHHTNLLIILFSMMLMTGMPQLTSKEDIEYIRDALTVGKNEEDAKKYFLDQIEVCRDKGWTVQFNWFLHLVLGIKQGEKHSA
Experimental: In a more preferred assay, the kinase reaction is performed in a final volume of 10 μL per well of a low volume non binding CORNING, 384 well black plate (Cat. No. #3676). The final concentrations of ATP and phosphatidyl inositol (PI) in the assay are 1 μM and 10 μg/mL respectively. The reaction is started by the addition of ATP.
The components of the assay are added per well as follows:
[…] in 90% DMSO per well, in columns 1-20, 8 concentrations (1/3 and 1/3.33 serial dilution step) in single. • Low control: […] of 90% DMSO in half the wells of columns 23-24 (0.45% in final). • High control: […] of reference compound (e.g. compound of Example 7 in WO 2006/122806) in the other half of columns 23-24 (2.5 μM in final). • Standard: […] of reference compound as just mentioned diluted as the test compounds in columns 21-22 • 20 mL ‘buffer’ are prepared per assay: • 200 μL of 1M TRIS HCl pH7.5 (10 mM in final) • 60 μL of 1M MgCl2 (3 mM in final) • 500 μL of 2M NaCl (50 mM in final) • 100 μL of 10% CHAPS (0.05% in final) • 200 μL of 100 mM DTT (1 mM in final) • 18.94 mL of nanopure water • 10 mL ‘PI’ are prepared per assay: • 200 μL of 1 mg/ml L-alpha-Phosphatidylinositol (Liver Bovine, Avanti Polar Lipids Cat. No. 840042C MW=909.12) prepared in 3% OctylGlucoside (10 μg/ml in final) • 9.8 mL of ‘buffer’ • 10 mL ‘ATP’ are prepared per assay: • 6.7 μL of 3 mM stock of ATP giving a final concentration of 1 μM per well • 10 mL of ‘buffer’ • 2.5 mL of each PI3K construct are prepared per assay in ‘PI’ with the following final concentration: • 10 nM PI3K alfa EMV B1075 • 25 nM beta EMV BV949 • 10 nM delta EMV BV1060 • 150 nM gamma EMV BV950 • 5 μL of ‘PI/PI3K’ are added per well. • 5 μl ‘ATP’ are added per well to start the reaction. • The plates are then incubated at room temperature for 60 minutes (alfa, beta, delta) or 120 minutes (gamma). • The reaction is terminated by the addition of 10 μL Kinase-Glo (Promega Cat. No. #6714). • The assay plates are read after 10 minutes in Synergy 2 reader (BioTek, Vermont USA) with an integration time of 100 milliseconds and sensitivity set to 191. • Output: The High control is around 60'000 counts and the Low control is 30'000 or lower • This luminescence assay gives a useful Z′ ratio between 0.4 and 0.7
IC50 is determined by a four parameter curve fitting routine that comes along with “excel fit”. […] Alternatively, IC50 values are calculated using idbsXLfit model 204, which is a 4 parameter logistic model.

[1] = system: PKB Ser473 phosphorylation in Rat1-myr-HA-p110 alpha cells; assay: Reverse protein array assay, PKB Ser473 phosphorylation in Rat1-myr-p110 alpha cells; type: cell-based; settings: 0.5 h, pAkt Ser473, 30 minutes compound incubation, read-out: p-PKB IC50
Procedure, shortened: (§1)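 Compound exposure lasted 30 min in Rat1 cells bearing membrane-targeted HA-p110 isoforms, using 8 serial concentrations. Arrayed lysates, each spotted at four dilutions, gave relative fluorescence signals for phospho-Ser473 PKB.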

[2] = system: PKB Ser473 phosphorylation in Rat1-myr-HA-p110 beta cells; assay: Reverse protein array assay, PKB Ser473 phosphorylation in Rat1-myr-p110 beta cells; type: cell-based; settings: 0.5 h, pAkt Ser473, 30 minutes incubation, read-out: p-PKB IC50
Procedure, shortened: as §1

[3] = system: PKB Ser473 phosphorylation in Rat1-myr-HA-p110 delta cells; assay: Reverse protein array assay, PKB Ser473 phosphorylation in Rat1-myr-p110 delta cells; type: cell-based; settings: read-out: p-PKB IC50
Procedure, shortened: as §1

SMILES | IC50 (PI3K alpha) [nM] | IC50 (PI3K delta) [nM] | solubility (Solubility at pH 6.8) [µg/mL] | IC50 (PI3K beta) [nM] | IC50 (PI3K gamma) [nM] | IC50 [1] [nM] | IC50 [2] [nM] | IC50 [3] [nM]
CCOc1cncc(-c2ccc3ncc4c(c3c2)n(-c2c(C)nn(C)c2C)c(=O)n4C)c1 [Example 56.3, 8-(5-Ethoxy-pyridin-3-yl)-3-methyl-1-(1,3,5-trimethyl-1H-pyrazol-4-yl)-1,3-dihydro-imidazo[4,5-c]quinolin-2-one] | 82 | 129 | 300 (≈ 700 µM) | 228 | 257 | 304 |  | 
Cc1nn(C)c(C)c1-n1c(=O)n(C)c2cnc3ccc(-c4cccc(S(=O)(=O)N(C)C)c4)cc3c21 [Example 53.2, N,N-Dimethyl-3-[3-methyl-2-oxo-1-(1,3,5-trimethyl-1H-pyrazol-4-yl)-2,3-dihydro-1H-imidazo[4,5-c]quinolin-8-yl]-benzenesulfonamide] | 94 | 93 | 40 (≈ 81.5 µM) | 843 | 183 | 375 | 634 | 672

The remaining compounds from weak to strong by IC50 (PI3K alpha), led by results:

IC50 (PI3K alpha) [nM] | IC50 (PI3K delta) [nM] | solubility (Solubility at pH 6.8) [µg/mL] | IC50 (PI3K beta) [nM] | IC50 (PI3K gamma) [nM] | IC50 [1] [nM] | IC50 [2] [nM] | IC50 [3] [nM] | SMILES
136 | 292 | > 384 | 799 | 273 | 594 | 937 | 1630 | Cc1nn(C)c(C)c1-n1c(=O)n(C)c2cnc3ccc(-c4cccnc4)cc3c21 [Example 10.1, 3-Methyl-8-pyridin-3-yl-1-(1,3,5-trimethyl-1H-pyrazol-4-yl)-1,3-dihydro-imidazo[4,5-c]quinolin-2-one]
94 | 432 | 8 (≈ 20 µM) | 241 | 140 | 552 | 795 | 946 | COc1ccc(-c2ccc3ncc4c(c3c2)n(-c2c(C)cnn2C)c(=O)n4C)cn1 [Example 2.1, 1-(2,4-Dimethyl-2H-pyrazol-3-yl)-8-(6-methoxy-pyridin-3-yl)-3-methyl-1,3-dihydro-imidazo[4,5-c]quinolin-2-one]
59 | 169 | 6 (≈ 14 µM) | 152 | 120 | 82 | 147 | 249 | COc1ccc(-c2ccc3ncc4c(c3c2)n(-c2c(C)cnn2C)c(=O)n4C)cc1OC [Example 1.7, 8-(3,4-Dimethoxy-phenyl)-1-(2,4-dimethyl-2H-pyrazol-3-yl)-3-methyl-1,3-dihydro-imidazo[4,5-c]quinolin-2-one]
